According to publication PMC8213057, “Targeting ALK2: An Open Science Approach to Developing Therapeutics for the Treatment of Diffuse Intrinsic Pontine Glioma” (Journal of Medicinal Chemistry, 2020):

Key:
[1] = target: T1, CYP1A2 (Homo sapiens, UniProt P05177); assay: CYP inhibition assay; assay type: in vitro ADME; details: human liver microsomes
T1 construct: tissue Corning 452117; host or cells: pooled human liver microsomes (UltraPool HLM 150, mixed gender)

[2] = target: T2, PDK1/PDPK1 (Homo sapiens, UniProt O15530); assay: biochemical; details: read-out: % enzyme activity, 1 μM; Run 1, Run 2
T2 sequence (O15530 1-556): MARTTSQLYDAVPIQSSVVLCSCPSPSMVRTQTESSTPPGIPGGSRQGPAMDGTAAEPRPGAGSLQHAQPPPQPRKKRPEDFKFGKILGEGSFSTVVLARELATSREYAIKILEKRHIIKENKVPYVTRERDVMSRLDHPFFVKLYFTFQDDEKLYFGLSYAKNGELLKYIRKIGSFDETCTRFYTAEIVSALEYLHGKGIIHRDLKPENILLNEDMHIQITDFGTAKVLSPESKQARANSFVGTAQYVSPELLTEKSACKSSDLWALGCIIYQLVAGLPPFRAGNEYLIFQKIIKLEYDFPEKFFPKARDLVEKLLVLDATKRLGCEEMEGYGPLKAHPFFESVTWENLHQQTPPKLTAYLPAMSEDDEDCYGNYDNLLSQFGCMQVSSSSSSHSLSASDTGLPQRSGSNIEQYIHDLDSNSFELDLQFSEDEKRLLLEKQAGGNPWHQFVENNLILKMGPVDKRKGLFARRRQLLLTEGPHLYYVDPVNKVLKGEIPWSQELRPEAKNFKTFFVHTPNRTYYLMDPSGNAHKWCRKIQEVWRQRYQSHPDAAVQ

[3] = target: KDR/VEGFR2 (Homo sapiens, UniProt P35968); assay: biochemical; details: read-out: % enzyme activity, 1 μM; Run 1, Run 2
Sequence of KDR/VEGFR2 (P35968 20-1356): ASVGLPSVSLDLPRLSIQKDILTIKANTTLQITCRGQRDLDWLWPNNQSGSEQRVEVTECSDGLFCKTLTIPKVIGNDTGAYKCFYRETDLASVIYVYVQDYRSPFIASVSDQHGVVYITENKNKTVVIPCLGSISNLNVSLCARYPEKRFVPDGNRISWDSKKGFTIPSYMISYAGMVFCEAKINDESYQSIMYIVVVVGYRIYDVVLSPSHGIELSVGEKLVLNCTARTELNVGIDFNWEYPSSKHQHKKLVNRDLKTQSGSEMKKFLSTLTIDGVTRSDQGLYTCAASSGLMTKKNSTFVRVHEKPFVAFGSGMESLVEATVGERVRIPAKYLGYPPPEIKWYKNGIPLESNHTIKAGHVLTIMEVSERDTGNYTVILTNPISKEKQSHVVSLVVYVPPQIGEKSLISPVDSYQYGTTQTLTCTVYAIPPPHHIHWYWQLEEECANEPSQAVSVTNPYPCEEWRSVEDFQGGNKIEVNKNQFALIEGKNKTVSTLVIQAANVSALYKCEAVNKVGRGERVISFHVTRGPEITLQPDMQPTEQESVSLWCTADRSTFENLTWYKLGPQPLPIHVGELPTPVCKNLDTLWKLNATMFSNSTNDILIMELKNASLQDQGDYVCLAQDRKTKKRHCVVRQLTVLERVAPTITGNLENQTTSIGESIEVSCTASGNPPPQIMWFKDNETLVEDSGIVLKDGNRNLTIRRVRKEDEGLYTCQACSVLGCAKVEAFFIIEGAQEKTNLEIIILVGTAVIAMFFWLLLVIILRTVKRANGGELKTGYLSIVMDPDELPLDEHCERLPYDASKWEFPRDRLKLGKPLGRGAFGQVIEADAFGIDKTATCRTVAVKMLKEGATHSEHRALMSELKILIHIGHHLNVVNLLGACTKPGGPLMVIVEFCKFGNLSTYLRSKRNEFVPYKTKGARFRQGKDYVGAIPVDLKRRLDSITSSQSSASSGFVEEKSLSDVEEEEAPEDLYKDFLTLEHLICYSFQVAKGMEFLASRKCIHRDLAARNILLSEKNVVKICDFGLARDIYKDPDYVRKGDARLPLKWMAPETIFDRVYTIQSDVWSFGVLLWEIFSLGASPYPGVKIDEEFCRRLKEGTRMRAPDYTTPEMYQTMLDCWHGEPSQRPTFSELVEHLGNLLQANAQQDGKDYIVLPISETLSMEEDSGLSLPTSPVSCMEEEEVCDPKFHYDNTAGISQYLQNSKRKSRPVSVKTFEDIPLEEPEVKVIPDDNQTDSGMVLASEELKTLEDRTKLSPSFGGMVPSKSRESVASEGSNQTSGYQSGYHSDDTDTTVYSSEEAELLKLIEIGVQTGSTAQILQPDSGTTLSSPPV

[4] = target: CYP3A4-Midazolam
[5] = target: ERK1 (Homo sapiens, UniProt P27361); assay: biochemical; details: read-out: % enzyme activity, 1 μM; Run 1, Run 2
Sequence of ERK1 (P27361 whole entry): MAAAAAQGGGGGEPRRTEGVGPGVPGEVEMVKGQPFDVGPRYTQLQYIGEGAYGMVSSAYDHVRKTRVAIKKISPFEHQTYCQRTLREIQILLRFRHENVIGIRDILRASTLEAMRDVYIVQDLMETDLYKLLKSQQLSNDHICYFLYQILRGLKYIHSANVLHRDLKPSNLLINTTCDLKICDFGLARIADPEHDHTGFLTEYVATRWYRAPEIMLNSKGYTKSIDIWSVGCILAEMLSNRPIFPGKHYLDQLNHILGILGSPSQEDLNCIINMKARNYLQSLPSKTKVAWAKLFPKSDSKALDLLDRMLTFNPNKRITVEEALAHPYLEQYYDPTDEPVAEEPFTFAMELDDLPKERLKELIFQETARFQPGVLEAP

[6] = target: MARK3 (Homo sapiens, UniProt P27448); details: 1 μM; Run 1, Run 2
[7] = target: SLK/STK2 (Homo sapiens, UniProt Q9H2G2); assay: biochemical; details: read-out: % enzyme activity, 1 μM; Run 1, Run 2
Sequence of SLK/STK2 (Q9H2G2 whole entry): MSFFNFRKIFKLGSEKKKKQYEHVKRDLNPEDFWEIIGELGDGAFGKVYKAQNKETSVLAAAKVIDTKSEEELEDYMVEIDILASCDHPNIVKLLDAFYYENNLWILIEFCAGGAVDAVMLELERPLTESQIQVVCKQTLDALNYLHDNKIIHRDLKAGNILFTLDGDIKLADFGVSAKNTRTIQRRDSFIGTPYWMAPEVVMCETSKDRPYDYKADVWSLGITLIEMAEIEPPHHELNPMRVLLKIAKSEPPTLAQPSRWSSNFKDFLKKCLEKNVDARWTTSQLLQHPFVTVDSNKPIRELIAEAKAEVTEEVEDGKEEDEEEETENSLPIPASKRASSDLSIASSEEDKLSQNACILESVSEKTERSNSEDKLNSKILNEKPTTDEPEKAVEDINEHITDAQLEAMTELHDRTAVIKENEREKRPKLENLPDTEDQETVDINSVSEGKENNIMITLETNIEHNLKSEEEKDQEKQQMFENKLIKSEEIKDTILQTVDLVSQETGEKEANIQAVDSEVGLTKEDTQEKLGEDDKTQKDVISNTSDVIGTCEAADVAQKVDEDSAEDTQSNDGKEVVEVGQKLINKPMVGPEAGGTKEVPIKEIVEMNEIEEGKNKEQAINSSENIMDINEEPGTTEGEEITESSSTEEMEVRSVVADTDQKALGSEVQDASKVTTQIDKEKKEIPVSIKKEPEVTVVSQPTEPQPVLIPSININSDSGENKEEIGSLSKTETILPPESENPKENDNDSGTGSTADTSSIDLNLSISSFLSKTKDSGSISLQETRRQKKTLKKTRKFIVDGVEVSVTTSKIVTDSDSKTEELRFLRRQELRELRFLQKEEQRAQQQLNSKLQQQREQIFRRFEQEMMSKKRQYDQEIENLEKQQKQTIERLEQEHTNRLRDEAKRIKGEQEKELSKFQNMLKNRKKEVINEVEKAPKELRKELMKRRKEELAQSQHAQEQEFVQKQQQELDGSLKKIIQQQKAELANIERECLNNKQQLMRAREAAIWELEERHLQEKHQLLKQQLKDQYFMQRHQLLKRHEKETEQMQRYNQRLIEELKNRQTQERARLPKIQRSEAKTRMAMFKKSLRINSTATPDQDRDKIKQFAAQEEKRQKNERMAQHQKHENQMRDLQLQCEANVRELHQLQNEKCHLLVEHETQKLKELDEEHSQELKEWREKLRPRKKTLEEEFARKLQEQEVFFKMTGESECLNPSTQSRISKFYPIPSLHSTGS

[8] = target: PIM3 (Homo sapiens, UniProt Q86V86); assay: biochemical; details: read-out: % enzyme activity, 1 μM; Run 1, Run 2
[9] = target: FGFR4 (Homo sapiens, UniProt P22455); details: 1 μM; Run 1, Run 2
Sequence of FGFR4 (P22455 22-802): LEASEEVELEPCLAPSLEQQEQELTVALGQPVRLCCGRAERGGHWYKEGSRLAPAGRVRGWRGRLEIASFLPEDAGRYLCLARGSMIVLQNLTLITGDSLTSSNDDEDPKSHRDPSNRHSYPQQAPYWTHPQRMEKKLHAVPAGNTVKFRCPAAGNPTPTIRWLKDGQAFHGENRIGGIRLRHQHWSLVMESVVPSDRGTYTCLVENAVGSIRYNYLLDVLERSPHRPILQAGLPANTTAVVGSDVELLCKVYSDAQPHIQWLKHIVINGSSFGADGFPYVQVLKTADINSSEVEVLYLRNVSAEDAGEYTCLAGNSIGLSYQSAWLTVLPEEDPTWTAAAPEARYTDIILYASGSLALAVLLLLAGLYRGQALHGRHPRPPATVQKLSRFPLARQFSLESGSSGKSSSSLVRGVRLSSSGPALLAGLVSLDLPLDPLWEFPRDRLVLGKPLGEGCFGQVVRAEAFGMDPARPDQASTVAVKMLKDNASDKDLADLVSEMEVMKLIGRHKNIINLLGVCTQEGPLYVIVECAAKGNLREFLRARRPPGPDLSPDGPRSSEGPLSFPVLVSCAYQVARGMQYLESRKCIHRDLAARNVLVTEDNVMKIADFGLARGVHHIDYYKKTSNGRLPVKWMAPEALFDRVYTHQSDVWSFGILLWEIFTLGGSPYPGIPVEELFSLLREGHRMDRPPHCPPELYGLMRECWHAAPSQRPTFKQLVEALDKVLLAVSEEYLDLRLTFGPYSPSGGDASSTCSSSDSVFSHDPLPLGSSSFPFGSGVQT

[10] = target: T3, PHKg2 (Homo sapiens, UniProt P15735); details: 1 μM; Run 1, Run 2
T3 sequence (P15735 1-406): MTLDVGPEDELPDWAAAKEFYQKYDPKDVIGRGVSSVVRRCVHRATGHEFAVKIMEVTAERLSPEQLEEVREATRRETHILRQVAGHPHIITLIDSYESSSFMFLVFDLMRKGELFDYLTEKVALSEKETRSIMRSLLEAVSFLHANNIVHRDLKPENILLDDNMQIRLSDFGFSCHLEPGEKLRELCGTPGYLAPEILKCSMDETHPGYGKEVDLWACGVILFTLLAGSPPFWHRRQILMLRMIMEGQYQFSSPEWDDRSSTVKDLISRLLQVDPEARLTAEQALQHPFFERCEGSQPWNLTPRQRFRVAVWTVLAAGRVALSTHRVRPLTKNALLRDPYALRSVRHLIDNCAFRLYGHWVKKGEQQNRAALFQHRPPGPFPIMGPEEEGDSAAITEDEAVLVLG

[11] = target: CDK5/p35 (Homo sapiens, UniProt Q00535); assay: biochemical; details: read-out: % enzyme activity, 1 μM; Run 1, Run 2
Sequence of CDK5/p35 (Q00535 whole entry): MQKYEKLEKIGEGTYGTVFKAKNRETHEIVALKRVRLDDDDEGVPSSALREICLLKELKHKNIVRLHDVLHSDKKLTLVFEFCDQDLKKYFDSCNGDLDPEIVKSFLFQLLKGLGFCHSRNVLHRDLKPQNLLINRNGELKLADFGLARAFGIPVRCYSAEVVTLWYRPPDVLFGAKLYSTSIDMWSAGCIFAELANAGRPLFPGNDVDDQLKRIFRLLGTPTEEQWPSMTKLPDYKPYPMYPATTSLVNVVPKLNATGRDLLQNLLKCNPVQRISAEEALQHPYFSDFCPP
Sequence of CDK5/p35 (Q15078 whole entry partner): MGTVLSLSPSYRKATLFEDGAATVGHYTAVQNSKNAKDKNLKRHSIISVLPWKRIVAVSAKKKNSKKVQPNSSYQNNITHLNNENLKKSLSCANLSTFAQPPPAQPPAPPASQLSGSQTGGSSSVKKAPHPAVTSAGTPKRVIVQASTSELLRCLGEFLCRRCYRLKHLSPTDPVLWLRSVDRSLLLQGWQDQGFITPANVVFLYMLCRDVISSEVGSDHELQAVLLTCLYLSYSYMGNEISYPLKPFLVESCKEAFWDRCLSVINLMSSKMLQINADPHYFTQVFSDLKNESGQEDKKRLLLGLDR

[12] = target: T4, BRSK2 (Homo sapiens, UniProt Q8IWQ3); assay: biochemical; details: read-out: % enzyme activity, 1 μM; Run 1, Run 2
T4 sequence (Q8IWQ3 1-736): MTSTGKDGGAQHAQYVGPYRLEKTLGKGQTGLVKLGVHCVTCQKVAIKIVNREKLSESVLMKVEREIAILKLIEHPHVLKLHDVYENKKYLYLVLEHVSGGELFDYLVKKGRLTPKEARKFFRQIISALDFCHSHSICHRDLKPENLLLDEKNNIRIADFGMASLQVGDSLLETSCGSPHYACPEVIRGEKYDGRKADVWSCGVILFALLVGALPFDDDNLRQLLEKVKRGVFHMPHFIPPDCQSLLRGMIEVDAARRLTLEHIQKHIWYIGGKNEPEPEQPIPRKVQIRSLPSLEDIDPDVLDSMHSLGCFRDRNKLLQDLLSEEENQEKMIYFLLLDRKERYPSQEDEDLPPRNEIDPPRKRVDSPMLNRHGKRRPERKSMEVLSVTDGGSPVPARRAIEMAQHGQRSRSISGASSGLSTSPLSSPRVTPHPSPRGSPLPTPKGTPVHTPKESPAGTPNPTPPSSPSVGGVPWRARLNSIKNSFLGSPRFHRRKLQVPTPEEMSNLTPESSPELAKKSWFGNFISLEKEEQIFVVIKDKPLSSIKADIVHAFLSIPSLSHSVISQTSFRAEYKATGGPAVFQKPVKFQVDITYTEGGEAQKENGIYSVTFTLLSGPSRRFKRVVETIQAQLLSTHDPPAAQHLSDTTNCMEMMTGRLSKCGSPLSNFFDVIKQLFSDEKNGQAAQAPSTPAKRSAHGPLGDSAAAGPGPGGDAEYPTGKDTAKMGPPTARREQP

[13] = target: PAK1 (Homo sapiens, UniProt Q13153); details: 1 μM; Run 1, Run 2

COc1cc(-c2cncc(-c3ccc(N4CCN(C)CC4)cc3)c2C)cc(F)c1C(N)=O [Compound 26a, 2-Fluoro-6-methoxy-4-(4-methyl-5-(4-(4-methylpiperazin-1-yl)phenyl)pyridin-3-yl)benzamide]
IC50 [1]: > 50 µM
remaining activity at 1 µM [2]: 94.3%
remaining activity at 1 µM [3]: 95.9%
CYP inhibition [4]: > 50 µM
remaining activity at 1 µM [5]: 97.3%
% enzyme activity [6]: 82.91%
remaining activity at 1 µM [7]: 100%
remaining activity at 1 µM [8]: 100%
% enzyme activity [9]: 97.61%
% enzyme activity [10]: 93.32%
remaining activity at 1 µM [11]: 96.2%
remaining activity at 1 µM [12]: 61.3%
% enzyme activity [13]: 102.29%

COc1cc(-c2cncc(-c3ccc(N4C[C@@H](C)N(C)[C@@H](C)C4)cc3)c2C)cc(F)c1C(N)=O [Compound 26c, 2-Fluoro-6-methoxy-4-(4-methyl-5-(4-((3R,5S)-3,4,5-trimethylpiperazin-1-yl)phenyl)pyridin-3-yl)benzamide]
IC50 [1]: > 50 µM
remaining activity at 1 µM [2]: 95.9%
remaining activity at 1 µM [3]: 88.4%
CYP inhibition [4]: > 50 µM
remaining activity at 1 µM [5]: 95.3%
% enzyme activity [6]: 93.66%
remaining activity at 1 µM [7]: 101%
remaining activity at 1 µM [8]: 107%
% enzyme activity [9]: 98.99%
% enzyme activity [10]: 96.43%
remaining activity at 1 µM [11]: 97.6%
remaining activity at 1 µM [12]: 77.9%
% enzyme activity [13]: 100.98%
